Assay results reported in US12195482B1 (Arcus Biosciences, Inc., priority 2022, dated 2025).

Molecular target: T1, Axl (Homo sapiens, UniProt P30530)
T1 sequence (P30530 26-894): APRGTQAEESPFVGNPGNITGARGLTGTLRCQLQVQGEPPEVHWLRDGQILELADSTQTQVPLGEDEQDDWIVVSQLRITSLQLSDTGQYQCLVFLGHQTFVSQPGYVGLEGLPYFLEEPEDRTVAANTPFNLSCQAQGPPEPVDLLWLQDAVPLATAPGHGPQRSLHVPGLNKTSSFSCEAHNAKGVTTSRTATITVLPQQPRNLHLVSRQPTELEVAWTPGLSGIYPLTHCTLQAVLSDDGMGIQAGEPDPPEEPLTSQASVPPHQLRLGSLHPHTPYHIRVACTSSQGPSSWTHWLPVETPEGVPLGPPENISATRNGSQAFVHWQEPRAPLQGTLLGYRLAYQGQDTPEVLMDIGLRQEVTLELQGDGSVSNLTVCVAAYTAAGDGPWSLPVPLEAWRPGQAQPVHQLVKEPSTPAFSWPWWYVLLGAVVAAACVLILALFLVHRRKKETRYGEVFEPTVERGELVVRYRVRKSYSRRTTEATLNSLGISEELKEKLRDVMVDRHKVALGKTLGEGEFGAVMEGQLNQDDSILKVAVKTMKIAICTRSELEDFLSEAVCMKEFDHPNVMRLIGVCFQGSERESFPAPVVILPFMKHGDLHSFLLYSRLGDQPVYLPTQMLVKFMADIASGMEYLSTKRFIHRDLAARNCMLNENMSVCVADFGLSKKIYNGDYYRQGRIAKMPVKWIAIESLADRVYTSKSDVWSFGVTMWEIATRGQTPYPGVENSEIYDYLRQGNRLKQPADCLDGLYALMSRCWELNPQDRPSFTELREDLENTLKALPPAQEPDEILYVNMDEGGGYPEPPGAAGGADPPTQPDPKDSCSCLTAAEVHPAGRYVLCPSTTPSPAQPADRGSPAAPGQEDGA
Assay: Axl NanoBRET intracellular kinase assay (intracellular binding, K-5 tracer displacement)
Parameters: host or cells: HEK-293
Settings: HEK-293 cells transfected with Axl-NanoLuc, 0.35 μM K-5 NanoBRET tracer; read-out: Cell Binding AXL
Procedure: Measuring Intracellular Binding of Axl Inhibitors
Axl NanoBRET™ intracellular kinase assay (Promega, N2540) was performed according to manufacturer's recommendation. In brief, HEK-293 cells are transiently transfected with Ax1-NanoLuc fusion vector (Promega, NV1071), utilizing Fugene HD transfection reagent (Promega, E2311) a day before experiment following manufacturer's recommendation.
The day of the assay, the cells were collected and resuspended in Opti-MEM media (ThermoFisher, 31985070) at 2e5 cells/mL concentration. Testing compounds were serial diluted and dispensed into a white 384 well polystyrene plate at 200 nL in 100% DMSO. 40 μL of resuspended cells is then added per well for a final condition of 8K cells/well with 0.5% DMSO. After one-hour compound pre-incubation at 37° C. and 5% CO2, cells were further incubated with 0.35 μM K-5 NanoBRET tracer for two-hours at 37° C. and 5% CO2. […] of 3× substrate plus Inhibitor solution was prepared according to kits manual and added to the cells followed by a 30 second pulse centrifugation spin. The plate was then immediately read utilizing an Envision (Perkin Elmer) plate reader. The BRET signal is measured by taking the ratio of the emissions reading at 610 nm and 450 nm. Compound binding is based on the decrease BRET signal caused by the displacement of the K-5 tracer. […] ICso value of compounds was determined by 4-parameter non-linear regression fitting of percent activity in GraphPad Prism software.

Compound	IC50
c1cncc(-c2ccc(-c3c[nH]c4ncc(-c5ccc6c(c5)CC[C@@H](N5C7COCC5C7)CC6)cc34)cc2)c1 [Example 158, 6-[(7S)-2-{3-[4-(Pyridin-3-yl)phenyl]-1H-pyrrolo[2,3-b]pyridin-5-yl}-6,7,8,9-tetrahydro-5H-benzo[7]annulen-7-yl]-3-oxa-6-azabicyclo[3.1.1]heptane]	100 to 1000 nM
c1ccc(-c2ccc(-c3n[nH]c4ncc(-c5ccc6c(c5)CC[C@@H](N5C7COCC5C7)CC6)cc34)cc2)nc1 [Example 154, 6-[(7S)-2-{3-[4-(Pyridin-2-yl)phenyl]-2H-pyrazolo[3,4-b]pyridin-5-yl}-6,7,8,9-tetrahydro-5H-benzo[7]annulen-7-yl]-3-oxa-6-azabicyclo[3.1.1]heptane]	< 100 nM
Cc1cccnc1-c1ccc(-c2c[nH]c3ncc(-c4ccc5c(c4)CC[C@@H](N4CCCC4)CC5)cc23)cc1 [Example 173, 3-Methyl-2-(4-{5-[(7S)-7-(pyrrolidin-1-yl)-6,7,8,9-tetrahydro-5H-benzo[7]annulen-2-yl]-1H-pyrrolo[2,3-b]pyridin-3-yl}phenyl)pyridine]	< 100 nM
CN(C)C(=O)c1cccnc1-c1ccc(-c2c[nH]c3ncc(-c4ccc5c(c4)CC[C@@H](N4C6COCC4C6)CC5)cc23)cc1 [Example 165, N,N-Dimethyl-2-(4-{5-[(7S)-7-{3-oxa-6-azabicyclo[3.1.1]heptan-6-yl}-6,7,8,9-tetrahydro-5H-benzo[7]annulen-2-yl]-1H-pyrrolo[2,3-b]pyridin-3-yl}phenyl)pyridine-3-carboxamide]	< 100 nM
CN(C)C(=O)c1cccc(-c2ccc(-c3n[nH]c4ncc(-c5ccc6c(c5)CC[C@@H](N5C7COCC5C7)CC6)cc34)cc2)n1 [Example 94, N,N-Dimethyl-6-(4-{5-[(7S)-7-{3-oxa-6-azabicyclo[3.1.1]heptan-6-yl}-6,7,8,9-tetrahydro-5H-benzo[7]annulen-2-yl]-2H-pyrazolo[3,4-b]pyridin-3-yl}phenyl)pyridine-2-carboxamide]	< 100 nM
Cn1cnnc1-c1ccc(-c2n[nH]c3ncc(-c4ccc5c(c4)CC[C@@H](N4C6COCC4C6)CC5)cc23)cc1 [Example 169, 6-[(7S)-2-{3-[4-(4-Methyl-4H-1,2,4-triazol-3-yl)phenyl]-1H-pyrazolo[3,4-b]pyridin-5-yl}-6,7,8,9-tetrahydro-5H-benzo[7]annulen-7-yl]-3-oxa-6-azabicyclo[3.1.1]heptane]	< 100 nM

Further lines, results first:

IC50	Compound
< 100 nM	Cc1ccnnc1-c1ccc(-c2n[nH]c3ncc(-c4ccc5c(c4)CC[C@@H](N4C6COCC4C6)CC5)cc23)cc1 [Example 176, 6-[(7S)-2-{3-[4-(4-Methylpyridazin-3-yl)phenyl]-1H-pyrazolo[3,4-b]pyridin-5-yl}-6,7,8,9-tetrahydro-5H-benzo[7]annulen-7-yl]-3-oxa-6-azabicyclo[3.1.1]heptane]
< 100 nM	CN(C)C(=O)c1ccccc1-c1ccc(-c2n[nH]c3ncc(-c4ccc5c(c4)CC[C@@H](N4C6COCC4C6)CC5)cc23)cc1 [Example 12, N,N-Dimethyl-4′-{5-[(7S)-7-{3-oxa-6-azabicyclo[3.1.1]heptan-6-yl}-6,7,8,9-tetrahydro-5H-benzo[7]annulen-2-yl]-2H-pyrazolo[3,4-b]pyridin-3-yl}-[1,1′-biphenyl]-2-carboxamide]
< 100 nM	C[C@@H]1CCCN1[C@@]1(C)CCc2ccc(-c3cnc4[nH]cc(-c5ccc(-c6ccccn6)cc5)c4c3)cc2CC1 [Example 156, 2-(4-{5-[(7S)-7-Methyl-7-[(2R)-2-methylpyrrolidin-1-yl]-6,7,8,9-tetrahydro-5H-benzo[7]annulen-2-yl]-1H-pyrrolo[2,3-b]pyridin-3-yl}phenyl)pyridine]
